Experimental data as given in patent US20110200624A1, “NOVEL PEPTIDES FOR USE IN TRANSFECTION” (MOLECULAR TRANSFER, INC., priority 2008, published 2011).

Tests used:
Experiment in all cases: Transfection with β-galactosidase reporter plasmid pCMVSPORT-β-gal, β-gal activity (ONPG)
Type in all cases: cell-based
NIH 3T3 = NIH 3T3 cells; DMS lipid (1:1 DOPE), 1.0 μg plasmid DNA, 1.0 ug peptide; β-gal activity OD 405 nm
Method: (§1) Transfection of, NIH3T3, HepG2, Human Fibroblast, Jurkat and Cos-7 and with β-galactosidase reporter plasmid pCMV[…]SPORT-β-gal was carried out as follows:
(§2) Cells were plated in 96-well plates with 100 μl of media containing 10% fetal calf serum the day before transfection such that a desired confluency (70%-95%) was achieved the following day. The following day DMS lipid (1:1 DOPE) and DNA/peptide were mixed in Opti-MEM to form DNA/lipid/peptide complexes. Complexes were formed by adding various amounts of lipid (1-6 μl) to 100 μl of Opti-MEM. Plasmid DNA (1.0 μg) was added to 100 μl Opti-MEM then 1.0 ug of each peptide was added to the DNA mixture and incubated for 10 minutes. The DNA/peptide and lipids solutions were then mixed to form DNA/peptide/lipid complexes. The complexes were incubated for an additional 15 minutes. After incubation 20 μl of each of the resulting complexes was added directly to the cells in 10% serum. Cells were incubated for an additional 16-24 hours to allow expression of the plasmid. Medium was removed and the cells were lysed in 100-200 μl of lysis buffer. The lysates (20 μl) were assayed for β-gal activity using the enzymatic substrate ONPG. Total activity was determined by reading the OD at 405 nm using a Bio-Rad Benchmark Microplate Spectrophotometer.

Human Fibroblast = details: DMS lipid (1:1 DOPE), 1.0 μg plasmid DNA, 1.0 ug peptide, β-gal activity OD 405 nm
Method: as §1, §2

Jurkat = Jurkat cells; DMS lipid (1:1 DOPE), 1.0 μg plasmid DNA, 1.0 ug peptide; β-gal activity OD 405 nm
Method: as §1, §2

HepG2 = HepG2 cells; DMS lipid (1:1 DOPE), 1.0 μg plasmid DNA, 1.0 ug peptide; β-gal activity OD 405 nm
Method: as §1, §2

PC12 = PC12 cells; DMS lipid (1:1 DOPE), 1.0 μg plasmid DNA, 1.0 ug peptide; β-gal activity OD 405 nm

Substance | Fold Ehancement over Lipid Alone (NIH 3T3) [Fold] | Fold Ehancement over Lipid Alone (Human Fibroblast) [Fold] | Fold Ehancement over Lipid Alone (Jurkat) [Fold] | Fold Ehancement over Lipid Alone (HepG2) [Fold] | Fold Ehancement over Lipid Alone (PC12) [Fold]
(K)16AARSPSYYRYDYGPYYAMDYD [Peptide #9] | 2.17 | 21.9 | 5.78 | 4.25 | 2.68
(K)16AAWDDSLGI [Peptide #3] | 1.5 | 12.9 | 4.5 | 1.9 | 2.88
(K)16DYYCAAWDDSLNGYSVF [Peptide #5] | 2.5 | 12 | 1.28 | 2 | 1.6
(K)16NSRDSSGIQNV [Peptide #2] | 0.89 | 14.5 | 4.8 | 1.3 | 2.09
(K)16VELDSFDY [Peptide #4] | 1.65 | 11.7 | 4.75 | 1.2 | 2.5
(K)16YYCARSDGNYGYYYALDYDY [Peptide #8] | 1.86 | 19.9 | 1 | 1.6 | 0.37
(K)16YYCDIRLRDP [Peptide #1] | 1.7 | 3.7 | 4.56 | 0.97 | 1.8
(K)16YYCLQSMEDPYTFGG [Peptide #7] | 1.46 | 29 | 1.47 | 3.3 | 0.91
(K)16YYCQQRSSYPYTFGG [Peptide #6] | 1.93 | 34 | 1.75 | 4.2 | 1.13
(K)16YYCQQSYSTPWTFGQGTK [Peptide #10] | 2.1 | 22.7 | 2 | 2.5 | 1.4
